# Data: ChEMBL document CHEMBL5390198, “Scaffold hopping of N-benzyl-3,4,5-trimethoxyaniline: 5,6,7-Trimethoxyflavan derivatives as novel potential anticancer agents modulating hippo signaling pathway” (2023)
# Active and inactive are the calls of the source. The rule behind the calls is not given here.
# Key:
# Type in all cases: functional
# [1] = system: EKVX; assay: cells; conditions: Homo sapiens, time 24-72 hrs
# Description: Antiproliferative activity against human EKVX cells assessed as inhibition of cell growth at 10 uM measured after 24 to 72 hrs by SRB method relative to control
# [2] = system: NCI-H226; assay: cells; conditions: Homo sapiens, time 24-72 hrs
# Description: Antiproliferative activity against human NCI-H226 cells assessed as inhibition of cell growth at 10 uM measured after 24 to 72 hrs by SRB method relative to control
# [3] = system: HOP-62; assay: Antiproliferative activity against human HOP-62 cells assessed as inhibition of cell growth at 10 uM measured after 24 to 72 hrs by SRB method relative to control; conditions: time 24-72 hrs
# [4] = system: NCI-H23; assay: cells; conditions: Homo sapiens, time 24-72 hrs
# Description: Antiproliferative activity against human NCI-H23 cells assessed as inhibition of cell growth at 10 uM measured after 24 to 72 hrs by SRB method relative to control
# [5] = system: NCI-H522; assay: Antiproliferative activity against human NCI-H522 cells assessed as inhibition of cell growth at 10 uM measured after 24 to 72 hrs by SRB method relative to control; conditions: time 24-72 hrs
# [6] = system: A549; assay: cells; conditions: Homo sapiens, time 24-72 hrs
# Description: Antiproliferative activity against human A549 cells assessed as inhibition of cell growth at 10 uM measured after 24 to 72 hrs by SRB method relative to control
# [7] = system: NCI-H460; assay: cells; conditions: Homo sapiens, time 24-72 hrs
# Description: Antiproliferative activity against human NCI-H460 cells assessed as inhibition of cell growth at 10 uM measured after 24 to 72 hrs by SRB method relative to control
# [8] = system: HOP-92; assay: cells; conditions: Homo sapiens, time 24-72 hrs
# Description: Antiproliferative activity against human HOP-92 cells assessed as inhibition of cell growth at 10 uM measured after 24 to 72 hrs by SRB method relative to control
# [9] = system: NCI-H322M; assay: Antiproliferative activity against human NCI-H322M cells assessed as inhibition of cell growth at 10 uM measured after 24 to 72 hrs by SRB method relative to control; conditions: time 24-72 hrs
# [10] = system: SNB-19; assay: Growth inhibition of human SNB-19 cells measured after 24 to 72 hrs by SRB method; conditions: time 24-72 hrs
# [11] = system: U-251; assay: Growth inhibition of human U-251 cells measured after 24 to 72 hrs by SRB method; conditions: time 24-72 hrs
# [12] = system: SF-268; assay: Growth inhibition of human SF-268 cells measured after 24 to 72 hrs by SRB method; conditions: time 24-72 hrs
# [13] = system: SF-295; assay: Growth inhibition of human SF-295 cells measured after 24 to 72 hrs by SRB method; conditions: time 24-72 hrs
SMILES,inhibition at 10 µM [1],inhibition at 10 µM [2],inhibition at 10 µM [3],inhibition at 10 µM [4],inhibition at 10 µM [5],inhibition at 10 µM [6],inhibition at 10 µM [7],inhibition at 10 µM [8],inhibition at 10 µM [9],inhibition [3],inhibition [9],GI50 [10],GI50 [11],GI50 [12],GI50 [13]
COc1cc2c(c(OC)c1OC)CCC(c1cccc(C(=O)Nc3cccc(Br)c3)c1)O2 (stereo not given),49.6%,30.1%,3.19%,22.5%,51.2%,35.5%,29.5%,93.8%,49.1%,,,,,,
COc1cc(C(=O)Nc2cccc(C3CCc4c(cc(OC)c(OC)c4OC)O3)c2)cc(OC)c1OC (stereo not given),19.5%,23.8%,26.1%,6.7%,56.8%,27.6%,12.7%,48.9%,3.54%,,,,,,
COc1cc2c(c(OC)c1OC)CCC(c1cccc(NC(=O)C(C)C)c1)O2 (stereo not given),,3.99%,,2.65%,9.48%,10.7%,,,,inactive,inactive,,,,
COc1cc2c(c(OC)c1OC)CCC(c1cccc(C(=O)Nc3ccc(C#N)cc3)c1)O2 (stereo not given),39.9%,67%,27.9%,59.4%,61.6%,49.1%,43.5%,47.7%,22.6%,,,,,,
COc1cc2c(c(OC)c1OC)CCC(c1cccc(NC(=O)c3ccc([N+](=O)[O-])cc3)c1)O2 (stereo not given),35.4%,50.7%,7.28%,34.2%,32.5%,32.2%,29%,15.7%,11%,,,,,,
COc1cccc(C(=O)Nc2cccc(C3CCc4c(cc(OC)c(OC)c4OC)O3)c2)c1 (stereo not given),15.2%,24%,8.46%,10.2%,33.5%,22.1%,4.3%,13%,18.6%,,,,,,
Cn1nnc2c(C(N)=O)ncn2c1=O [TEMOZOLOMIDE],,,,,,,,,,,,> 100 µM,> 100 µM,> 100 µM,> 100 µM
COc1cc2c(c(OC)c1OC)CCC(c1cccc(C(=O)Nc3cccc(Cl)c3)c1)O2 (stereo not given),35.8%,34.4%,20.4%,14.2%,48.3%,38.5%,15%,91.5%,48.3%,,,,,,
COc1cc2c(c(OC)c1OC)CCC(c1cccc(C(=O)Nc3ccc(Br)cc3)c1)O2 (stereo not given),39.5%,37.3%,18%,24.2%,51.1%,35.8%,16%,83%,50%,,,,,,
COc1cc2c(c(OC)c1OC)CCC(c1cccc(C(=O)Nc3ccc([N+](=O)[O-])cc3)c1)O2 (stereo not given),44.6%,51.7%,23.3%,52.8%,50.4%,44.8%,41.1%,57.4%,31.7%,,,,,,
COc1ccccc1NC(=O)c1cccc(C2CCc3c(cc(OC)c(OC)c3OC)O2)c1 (stereo not given),5.98%,8.23%,8.84%,1.98%,27.7%,9.57%,2.86%,9.4%,11.4%,,,,,,
COc1cccc(NC(=O)c2cccc(C3CCc4c(cc(OC)c(OC)c4OC)O3)c2)c1 (stereo not given),30.9%,46.3%,14.8%,26.1%,46.9%,29.2%,16%,73.7%,45.8%,,,,,,
